From US20130022644A1, “NOVEL N-PHENYLACETAMIDE DERIVATIVES, WHICH INHIBIT THE ENZYME SOAT-1, AND PHARMACEUTICAL AND COSMETIC COMPOSITIONS CONTAINING THEM” (GALDERMA RESEACH & DEVELOPMENT, priority 2009, published 2013)

Columns and labels:
enzyme ACAT-1 = biological target: T1, enzyme ACAT-1 (Homo sapiens, UniProt P35610); assay: HepG2 NBD-cholesterol fluorescence test for inhibitory activity towards the enzyme ACAT-1 (SOAT-1); format: cell-based; details: HepG2 cells, NBD-cholesterol 1 μg/ml, incubation 6 hours at 37° C., fluorescence ex 490 nm / em 540 nm
T1 construct: endogenous in cells; host or cells: HepG2
T1 sequence (P35610 1-550): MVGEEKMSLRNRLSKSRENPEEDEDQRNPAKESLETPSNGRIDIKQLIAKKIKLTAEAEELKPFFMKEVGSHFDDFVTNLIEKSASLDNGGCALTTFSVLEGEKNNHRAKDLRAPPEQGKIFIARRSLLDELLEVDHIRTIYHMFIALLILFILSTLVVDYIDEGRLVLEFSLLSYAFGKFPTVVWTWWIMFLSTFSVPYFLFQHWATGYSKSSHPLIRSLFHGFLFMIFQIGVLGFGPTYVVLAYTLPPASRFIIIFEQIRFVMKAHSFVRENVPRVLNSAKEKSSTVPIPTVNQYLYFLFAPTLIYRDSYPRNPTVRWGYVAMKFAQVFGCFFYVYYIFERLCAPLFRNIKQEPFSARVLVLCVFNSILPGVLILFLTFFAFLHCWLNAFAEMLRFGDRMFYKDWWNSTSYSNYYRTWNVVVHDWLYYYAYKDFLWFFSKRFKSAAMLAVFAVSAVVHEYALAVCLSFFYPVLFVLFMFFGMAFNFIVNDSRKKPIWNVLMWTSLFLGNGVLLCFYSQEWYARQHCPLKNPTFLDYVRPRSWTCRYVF
Protocol: The compounds (1) according to the invention, and also the pharmaceutically acceptable salts, solvates and/or hydrates thereof, have inhibitory properties on the enzyme SOAT-1. This inhibitory activity on the enzyme SOAT-1 is measured according to a HepG2 primary enzymatic test, as described in Example 3.
The compounds of formula (I) according to the invention were subjected to a test for evaluating their inhibitory activity towards the enzyme ACAT-1, inspired by the following publication: “Identification of ACAT1- and ACAT2-specific inhibitors using a novel, cell based fluorescence assay: individual ACAT uniqueness”, J. Lipid. Res. (2004) vol. 45, pages 378-386.
The principle of this test is based on the use of NBD-cholesterol, a cholesterol analogue whose fluorescence depends on its environment. When this molecule is in a polar environment, it is weakly fluorescent, whereas in a non-polar environment, it is strongly fluorescent. […]
The method below is applied: HepG2 cells are incubated in the presence of NBD-cholesterol (1 μg/ml) and of the test compound of formula (I) in black transparent-bottomed 96-well plates, at a rate of 30 000 cells per well. […] After addition of 50 μl of lysis buffer (10 mM NaPO4, 1% Igepal), the plates are shaken for 5 minutes and the fluorescence is read (excitation at 490 nm, emission at 540 nm) on a Fusion machine (Perkin-Elmer). […]

melting point: 186 °C
IC50 (enzyme ACAT-1): 9 nM
Structure (SMILES): CCCC1(C)C(=O)N(CC(=O)Nc2c(C(C)C)cccc2C(C)C)C(=O)N1c1ccc(C)cc1 (centres unmarked) [Compound 1, N-(2,6-Diisopropylphenyl)-2-(4-methyl-2,5-dioxo-4-propyl-3-p-tolylimidazolidin-1-yl)acetamide]
